Among the data in patent US10954216B2, “BMP-signal-inhibiting compound” (RIKEN, priority 2016, dated 2021) are IC50 values, retold here.

SMILES strings stand for the structures. pIC50: −log10 of the molar value.

The assay deals with BMP signal in MDA-231-D-BREFluc/Rluc cells. In words: BMP signal inhibitory effect (AlphaScreen SureFire SMAD1 p-Ser463/465, BMP-6 stimulation). The note with it: BMP-6 stimulated MDA-231-D-BREFluc/Rluc cells, phospho-SMAD1 AlphaScreen; read-out: IC50. It is filed as cell-based. As to the method:
BMP Signal Inhibitory Effect
A BMP signal inhibitory activity of a compound of the present invention was evaluated according to the following method.
MDA-231-D-BREFluc/Rluc cells prepared according to the method described in Y. Katsuno et al., Oncogene, 27, 6322 (2008) were incubated at 37° C. for 2 hours together with test compounds, and BMP-6 (commercially available from R&D System, 507-BM-020) was then added thereto, and the mixture was additionally incubated at 37° C. for 30 minutes. A Lysis Buffer and Acceptor mix of AlphaScreen SureFire SMAD1 (p-Ser463/465) assay kit (commercially available from Perkin Elmer, TGRSM1S10K) were sequentially added thereto, the mixture was incubated at room temperature for 2 hours, and AlphaScreen Protein A kit (commercially available from Perkin Elmer, 6760617) was then added thereto, and standard AlphaScreen settings of Alpha Technology—compatible plate reader (commercially available from Perkin Elmer, EnSpire) was used for measurement.
A word on the pIC50: it is the negative decadic logarithm of the IC50, by convention in mol/L. With `COCCn1cc(-c2ccnc(Nc3ccc(N4CCN(C)CC4)cc3)n2)c(-c2cccnc2)n1` [Example 35, 4-(1-(2-methoxyethyl)-3-(pyridin-3-yl)-1H-pyrazol-4-yl)-N-(4-(4-methylpiperazin-1-yl)phenyl)pyrimidin-2-amine], the pIC50 was 7.65.
To `COCCn1cc(-c2ccnc(Nc3ccc(N4CCN(CC5CC5)CC4)cc3)n2)c(-c2cccnc2)n1` [Example 36, N-(4-(4-(Cyclopropylmethyl)piperazin-1-yl)phenyl)-4-(1-(2-methoxyethyl)-3-(pyridin-3-yl)-1H-pyrazole-4-yl)pyrimidin-2-amine] belongs 7.80; to `CCn1cc(-c2ccnc(Nc3ccc(-n4nc(C)nc4C)cc3)n2)c(-c2cccnc2)n1` [Example 39, N-(4-(3,5-dimethyl-1H-1,2,4-triazol-1-yl)phenyl)-4-(1-ethyl-3-(pyridin-3-yl)-1H-pyrazol-4-yl)pyrimidin-2-amine], 7.95; to `CCn1cc(-c2ccnc(Nc3cccc(CN(C)C)c3)n2)c(-c2cccnc2)n1` [Example 40, N-(3-((dimethylamino)methyl)phenyl)-4-(1-ethyl-3-(pyridin-3-yl)-1H-pyrazol-4-yl)pyrimidin-2-amine], 8.30.
As for `CCn1cc(-c2ccnc(Nc3ccc(Cn4cncn4)cc3)n2)c(-c2cccnc2)n1` [Example 42, N-(4-((1H-1,2,4-Triazol-1-yl)methyl)phenyl)-4-(1-ethyl-3-(pyridin-3-yl)-1H-pyrazol-4-yl)pyrimidin-2-amine], the pIC50 is 7.43.
As for `CCn1cc(-c2ccnc(Nc3ccc(CCN4CCN(CCOC)CC4)cc3)n2)c(-c2cccnc2)n1` [Example 43, 4-(1-ethyl-3-(pyridin-3-yl)-1H-pyrazol-4-yl)-N-(4-(2-(4-(2-methoxyethyl)piperazin-1-yl)ethyl)phenyl)pyrimidin-2-amine], the pIC50 was 8.28.
As for `CCn1cc(-c2ccnc(Nc3ccc(-n4ccnc4)cc3)n2)c(-c2cccnc2)n1` [Example 44, N-(4-(1H-Imidazol-1-yl)phenyl)-4-(1-ethyl-3-(pyridin-3-yl)-1H-pyrazol-4-yl)pyrimidin-2-amine], the pIC50 was 7.84.
The value for `CCn1cc(-c2ccnc(Nc3ccc(C4CCN(C)CC4)c(F)c3)n2)c(-c2cccnc2)n1` [Example 45, 4-(1-ethyl-3-(pyridin-3-yl)-1H-pyrazol-4-yl)-N-(3-fluoro-4-(1-methylpiperidin-4-yl)phenyl)pyrimidin-2-amine] was 7.92.
The value for `CCn1cc(-c2ccnc(Nc3ccc(N4CCN(C)CC4)c(OC)c3)n2)c(-c2cccnc2)n1` [Example 47, 4-(1-ethyl-3-(pyridin-3-yl)-1H-pyrazol-4-yl)-N-(3-methoxy-4-(4-methylpiperazin-1-yl)phenyl)pyrimidin-2-amine] was 7.99; that for `CCn1cc(-c2ccnc(Nc3cnn(C4CN(CC(C)(C)O)C4)c3)n2)c(-c2cccnc2)n1` [Example 48, 1-(3-(4-((4-(1-Ethyl-3-(pyridin-3-yl)-1H-pyrazol-4-yl)pyrimidin-2-yl)amino)-1H-pyrazol-1-yl)azetidin-1-yl)-2-methylpropan-2-ol] was 7.67; that for `CCn1cc(-c2ccnc(Nc3ccc(C4CCN(CCOC)C4)cc3)n2)c(-c2cccnc2)n1` (stereo not shown) [Example 50, 4-(1-ethyl-3-(pyridin-3-yl)-1H-pyrazol-4-yl)-N-(4-(1-(2-methoxyethyl)pyrrolidin-3-yl)phenyl)pyrimidin-2-amine] was 8.20.
As to `CCn1cc(-c2ccnc(Nc3ccc(N4CCN(CCOCC(F)F)CC4)cc3)n2)c(-c2cccnc2)n1` [Example 51, N-(4-(4-(2-(2,2-difluoroethoxy)ethyl)piperazin-1-yl)phenyl)-4-(1-ethyl-3-(pyridin-3-yl)-1H-pyrazol-4-yl)pyrimidin-2-amine], the pIC50 was 7.74.
To `CCn1cc(-c2ccnc(Nc3ccc(N4CCN(CCOCC5CC5)CC4)cc3)n2)c(-c2cccnc2)n1` [Example 52, N-(4-(4-(2-(Cyclopropylmethoxy)ethyl)piperazin-1-yl)phenyl)-4-(1-ethyl-3-(pyridin-3-yl)-1H-pyrazol-4-yl)Pyrimidin-2-amine] belongs 7.88.
